Substitutions are numbered along the chain they refer to. In names and notes the source's numbering stands. Several values for one entry are separate records, joined by “and”; a condition that tells them apart may be missing. Identical values can stand only once. Marks after values point to notes of the source that are not given here.
B1: WT DAT (Rattus norvegicus) (protein)
chain: MSKSKCSVGPMSSVVAPAKESNAVGPREVELILVKEQNGVQLTNSTLINPPQTPVEAQERETWSKKIDFLLSVIGFAVDLANVWRFPYLCYKNGGGAFLVPYLLFMVIAGMPLFYMELALGQFNREGAAGVWKICPVLKGVGFTVILISFYVGFFYNVIIAWALHYFFSSFTMDLPWIHCNNTWNSPNCSDAHASNSSDGLGLNDTFGTTPAAEYFERGVLHLHQSRGIDDLGPPRWQLTACLVLVIVLLYFSLWKGVKTSGKVVWITATMPYVVLTALLLRGVTLPGAMDGIRAYLSVDFYRLCEASVWIDAATQVCFSLGVGFGVLIAFSSYNKFTNNCYRDAIITTSINSLTSFSSGFVVFSFLGYMAQKHNVPIRDVATDGPGLIFIIYPEAIATLPLSSAWAAVFFLMLLTLGIDSAMGGMESVITGLVDEFQLLHRHRELFTLGIVLATFLLSLFCVTNGGIYVFTLLDHFAAGTSILFGVLIEAIGVAWFYGVQQFSDDIKQMTGQRPNLYWRLCWKLVSPCFLLYVVVVSIVTFRPPHYGAYIFPDWANALGWIIATSSMAMVPIYATYKFCSLPGSFREKLAYAITPEKDHQLVDRGEVRQFTLRHWLLL
B2: D79E DAT (Rattus norvegicus; D79E) (protein)
chain: B1 chain with D79E

Columns and labels:
D79E DAT [1] = target: T1, D79E DAT (Rattus norvegicus, UniProt P23977, D79E); assay: [3H]-WIN 35,428 binding / displacement at CHO cells stably expressing D79E DAT; details: for loss of binding affinity ([3H]-WIN 35,428 displacement) caused by the D79E mutation (D79E vs WT DAT): CHO cells, comparison of Ki values
T1 construct: expressed in transfected cells; host or cells: CHO-K1, stably transfected; intact attached monolayers
T1 sequence (P23977 1-619 D79E): B1 chain with D79E
Experimental: (§1) Ligand binding assays. […] Nonradioactive competitor concentrations were as indicated above for uptake inhibition. […] Membranes were aspirated with a Brandel harvester onto GF/B glass-fiber filter paper, washed with 3×5 ml cold binding buffer, and the filters measured for radioactivity via scintillation counting. For all binding assays, data were analyzed with the GraphPad Prism 2.0 software to obtain Kd, Ki and Bmax values.

D79E DAT [2] = target: T1, D79E DAT; assay: [3H]-dopamine uptake and uptake inhibition, CHO cells stably expressing D79E DAT; format: cell-based
WT DAT [3] = target: T2, WT DAT (Rattus norvegicus, UniProt P23977); assay: [3H]-dopamine uptake and uptake inhibition, CHO cells stably expressing WT DAT; format: cell-based
T2 construct: expressed in transfected cells; host or cells: CHO-K1, stably transfected (G-418 selection); intact monolayers in A1 and A3, membranes in A5

WT DAT [4] = target: T2, WT DAT; assay: [3H]-WIN 35,428 binding / displacement at intact CHO cells stably expressing WT DAT
Experimental: as §1

intact naïve CHO cells = assay: [3H]-WIN 35,428 low affinity site of intact naïve CHO cells; format: binding; details: intact naïve (untransfected) CHO cells
Experimental: To further address this steric issue, dihydroxy-benzylamine (DHBA) was employed as a potential DAT substrate. […] Ligand binding assays were conducted under conditions that matched those for assaying uptake inhibition.

[5] = substrate: NCCc1ccc(O)c(O)c1; assay: cells, lysate or membranes; details: 22° C., KRH buffer, mean ± standard error, pH 7.3
[6] = CHO cells, comparison of Ki values
[7] = DAT substrates, CHO cells, D79E DAT, 22° C., KRH buffer, mean ± standard error, read-out: Ki, inhibition of [3H]-DA uptake
[8] = DAT substrates, intact CHO cells, WT DAT, 1 nM [3H]-WIN 35,428, 15 min, 22° C., read-out: Ki, [3H]-WIN inhibition (binding affinity)
[9] = DAT substrates, CHO cells, WT DAT, 22° C., KRH buffer, mean ± standard error, read-out: Ki, inhibition of [3H]-DA uptake
[10] = DAT substrates, intact CHO cells, D79E DAT, 1 nM [3H]-WIN 35,428, 15 min, 22° C., read-out: Ki, [3H]-WIN inhibition (binding affinity)

Row | Molecule | loss of binding affinity ([3H]-WIN 35,428 displacement) caused by the D79E mutation (D79E vs WT DAT) (D79E DAT [1]) | Ki (D79E DAT [1]) [µM] | loss of dopamine uptake inhibition potency caused by the D79E mutation (D79E vs WT DAT) (D79E DAT [2]; [6]) | Ki (D79E DAT [2]; [7]) [µM] | Ki (WT DAT [4]; [8]) | Ki (WT DAT [3]; [9]) [µM] | Ki (D79E DAT [1]; [10]) [µM] | also measured
1 | NCCc1ccc(O)c(O)c1 [Dopamine, dopamine] | almost identical | – | – | – | – | – | – | Vmax/Bmax (dopamine turnover rate) (D79E DAT [2]; D79E DAT CHO cells, Bmax from [3H]-WIN 35,428 saturation binding): 7.9 min⁻¹; Vmax of dopamine uptake (D79E DAT [2]; D79E DAT CHO cells, dopamine at 0.1 Ci/mmol, 5 min, 22° C.): 48 ± 4^a pmol/mg/min; decrease in DAT dopamine turnover rate rendered by the D79E mutation (D79E DAT [2]; corrected for fewer transporters at the cell surface): approximately 4 fold; Vmax/Bmax (dopamine turnover rate) (WT DAT [3]; WT DAT CHO cells, Bmax from [3H]-WIN 35,428 saturation binding): 34.1 min⁻¹; Vmax of dopamine uptake (WT DAT [3]; WT DAT CHO cells, dopamine at 0.1 Ci/mmol, 5 min, 22° C.): 348 ± 22 pmol/mg/min; WT DAT turnover rate higher than that for D79E DAT CHO cells (WT DAT [3]; [3H]-dopamine uptake kinetics, CHO cells): 7 fold
2 | OC1(c2ccc(Cl)cc2)c2ccccc2C2=NCCN21 (stereo not shown) [Mazindol, mazindol] | – | 0.041 ± 0.003 | no effect | – | – | – | – | Ki (D79E DAT [2]): 0.047 ± 0.004 µM; Ki (WT DAT [4]): 0.013 ± 0.001 µM; Ki (WT DAT [3]): 0.031 ± 0.003 µM
3 | COC(=O)C(c1ccccc1)C1CCCCN1 (stereo not shown) [Methylphenidate, methylphenidate] | – | 0.167 ± 0.002 | no effect | – | – | – | – | Ki (D79E DAT [2]): 0.161 ± 0.009 µM
4 | NC[C@H](O)c1ccc(O)c(O)c1 [Norepinephrine] | 2 fold | 5.5 ± 0.7 | equally effective | 5.2 ± 0.3 | 2.3 µM | 5.4 | – | –
5 | COC(=O)[C@H]1[C@@H](c2ccc(F)cc2)C[C@@H]2CC[C@H]1N2C [WIN 35,428] | – | – | no effect | – | – | – | – | specific binding of [3H]-WIN 35,428 (D79E DAT [1]; D79E DAT, suspended cells or cell membrane preparation in KRH uptake buffer): undetectable; Kd (intact naïve CHO cells): > 1 µM
6 | NCCc1cccc(O)c1 [m-Tyramine] | – | – | unchanged | 1.2 ± 0.3 | 1 µM | 1.4 ± 0.3 | 6.6 ± 1.2 | –
7 | NCCc1ccc(O)cc1 [p-Tyramine] | – | – | 2 fold | 3.3 ± 0.4 | 0.8 µM | 1.7 ± 0.1 | 4.3 ± 0.5 | –
8 | dihydroxybenzylamine [DHBA] | identical | – | – | 782 ± 22 | 800 µM and 801 µM | 5760 ± 540 | 791 ± 27 | potency of inhibition of [3H]-WIN 35,428 binding compared with potency for inhibition of [3H]-dopamine uptake at D79E DAT (D79E DAT [1]; intact CHO cells, D79E DAT): agrees well; Ki at D79E DAT relative to the Ki value for dopamine binding at WT DAT (higher) (D79E DAT [2]): 377 fold; Ki for uptake inhibition at D79E DAT relative to the dopamine Km value at WT DAT (higher) (D79E DAT [2]): 460 fold; potency in inhibiting [3H]-dopamine uptake, higher at D79E DAT compared to WT DAT (D79E DAT [2]; [6]): 7 fold; more potent as inhibitor of [3H]-WIN 35,428 binding than as inhibitor of [3H]-dopamine uptake at WT DAT (WT DAT [4]; intact CHO cells stably expressing WT DAT): 7 fold
9 | B1 | – | – | – | – | – | – | – | Km ([5]; other: CHO cells stably expressing WT DAT): 1.7 ± 0.3 µM
10 | B2 | – | – | – | – | – | – | – | Km ([5]; other: CHO cells stably expressing D79E DAT): 2.3 ± 0.3^ μM

— patent US20050196744A1 (priority 2004, published 2005)
